Test results as given in the NIST ThermoML archive (doi:10.1016/j.jct.2014.06.001).

Details: for mass density: 293 K, 101.33 kPa, Pycnometric method; for vapor or sublimation pressure: Transpiration method

CCN1C(=O)CC(=O)N(CC)C1=S [1,3-diethyl-2-thiobarbituric acid]
Details	mass density [kg/m3]
Crystal	1610

Crystal
Details	vapor or sublimation pressure [kPa]
327.3 K	0.00039
333.6 K	0.00074
337.7 K	0.0011
340 K	0.00135
343 K	0.00185
348 K	0.00293
349.1 K	0.0034
351 K	0.00384
353.3 K	0.00489
354.1 K	0.00551
355.3 K	0.00634
358.1 K	0.00756
362.4 K	0.01184
367.7 K	0.01865
368.6 K	0.02034
370.7 K	0.02408
372.2 K	0.02684
375.7 K	0.03524
375.9 K	0.03465

CCN1C(=O)CC(=O)N(CC)C1=O [1,3-diethylbarbituric acid]
Details	mass density [kg/m3]
Crystal	1320

Liquid
Details	vapor or sublimation pressure [kPa]
328.9 K	0.00282
333.8 K	0.00441
339.1 K	0.00675
346 K	0.0115
351.2 K	0.01744
356.2 K	0.02535
360.3 K	0.03131
366 K	0.04999
371.3 K	0.07142
376.8 K	0.09721
380.7 K	0.1327
